Measurements from the supplement of paper PMC6965134.
± gives the standard deviation of the averaged measurements.

Assay: TIMS collisional cross section (CCS, N2) of the lipid ion; higher = larger ion cross section
Conditions: ionization mode: positive, one isomer drawn

Row | Compound | TIMS collisional cross section (sample type: HeLa) | TIMS collisional cross section (sample type: plasma) | TIMS collisional cross section (sample type: Liver)
1 | CCCCCCC/C=C\CCCCCCCC(=O)O[C@@H](COC(=O)CCCCCCC/C=C\CCCCCCCC)COC(=O)CCCCCCCCCCCCCC [TG 15:0_17:1_18:1] (ion (formula + adduct): [C53H98O6+NH4] 1+) | 315.9 Å² | – | –
2 | CCCCC/C=C\C/C=C\C/C=C\CCCCC(=O)OC[C@@H](COC(=O)CCCCCCCCCCCCCC)OC(=O)CCCCCCC/C=C\C/C=C\CCCCC [TG 15:0_18:2_18:3] (ion (formula + adduct): [C54H94O6+NH4] 1+) | – | 312.8 Å² | 312.7 Å²
3 | CCCCC/C=C\CCCCCCCC(=O)OC[C@H](COC(=O)CCCCCCCCCCCCCCC)OC(=O)CCCCCCCCCCCCCCC [TG 15:1_16:0_16:0] (ion (formula + adduct): [C50H94O6+NH4] 1+) | – | – | 309.7 Å²
4 | CCCCC/C=C\CCCCCCCC(=O)OC[C@H](COC(=O)CCCCCCC/C=C\CCCCCC)OC(=O)CCCCCCCCCCCCCCC [TG 15:1_16:0_16:1] (ion (formula + adduct): [C50H92O6+NH4] 1+) | – | 307.1 Å² | 307.4 Å²
5 | CCCCC/C=C\CCCCCCCC(=O)OC[C@H](COC(=O)CCCCCCCCCCCCCCCC)OC(=O)CCCCCCC/C=C\CCCCCC [TG 15:1_16:1_17:0] (ion (formula + adduct): [C51H94O6+NH4] 1+) | – | – | 309.9 Å²
6 | CCCCC/C=C\CCCCCCCC(=O)OC[C@H](COC(=O)CCCCCCC/C=C\CCCCCCC)OC(=O)CCCCCCC/C=C\CCCCCC [TG 15:1_16:1_17:1] (ion (formula + adduct): [C51H92O6+NH4] 1+) | – | – | 308.7 Å²
7 | CCCCC/C=C\CCCCCCCC(=O)OC[C@H](COC(=O)CCCCCCC/C=C\CCCCCCCC)OC(=O)CCCCCCC/C=C\CCCCCC [TG 15:1_16:1_18:1] (ion (formula + adduct): [C52H94O6+NH4] 1+) | 310.8 Å² | – | 312.2 Å²
8 | CCCCCC/C=C\CCCCCCCC(=O)OC[C@@H](COC(=O)CCCCCCCCCCCCCCC)OC(=O)CCCCCCCCCCCCCCC [TG 16:0_16:0_16:1] (ion (formula + adduct): [C51H96O6+NH4] 1+) | 311.7 Å² | – | –
9 | CCCCCCC/C=C\CCCCCCCC(=O)OC[C@@H](COC(=O)CCCCCCCCCCCCCCC)OC(=O)CCCCCCCCCCCCCCC [TG 16:0_16:0_17:1] (ion (formula + adduct): [C52H98O6+NH4] 1+) | – | – | 315.2 Å²
10 | CCCCCCCCCCCCCCCCCC(=O)OC[C@@H](COC(=O)CCCCCCCCCCCCCCC)OC(=O)CCCCCCCCCCCCCCC [TG 16:0_16:0_18:0] (ion (formula + adduct): [C53H102O6+NH4] 1+) | 319.9 Å² | 320.25 ± 0.35 Å² | 320.7 Å²
11 | CCCCCCCCC/C=C\CCCCCCCC(=O)OC[C@@H](COC(=O)CCCCCCCCCCCCCCC)OC(=O)CCCCCCCCCCCCCCC [TG 16:0_16:0_19:1] (ion (formula + adduct): [C54H102O6+NH4] 1+) | 321.5 Å² | – | –
12 | CC/C=C\C/C=C\C/C=C\C/C=C\C/C=C\CCCC(=O)OC[C@@H](COC(=O)CCCCCCCCCCCCCCC)OC(=O)CCCCCCCCCCCCCCC [TG 16:0_16:0_20:5] (ion (formula + adduct): [C55H96O6+Na] 1+) | – | – | 314.5 Å²
13 | CC/C=C\C/C=C\C/C=C\C/C=C\C/C=C\C/C=C\CCC(=O)OC[C@@H](COC(=O)CCCCCCCCCCCCCCC)OC(=O)CCCCCCCCCCCCCCC [TG 16:0_16:0_22:6] (ion (formula + adduct): [C57H98O6+NH4] 1+) | 324 Å² | – | –
14 | CCCCCC/C=C\CCCCCCCC(=O)OC[C@@H](COC(=O)CCCCCCCCCCCCCCC)OC(=O)CCCCCCC/C=C\CCCCCC [TG 16:0_16:1_16:1] (ion (formula + adduct): [C51H94O6+NH4] 1+) | – | – | 310.2 Å²
15 | CCCCCC/C=C\CCCCCCCC(=O)O[C@H](COC(=O)CCCCCCCCCCCCCCC)COC(=O)CCCCCCCCCCCCCCCC [TG 16:0_16:1_17:0] (ion (formula + adduct): [C52H98O6+NH4] 1+) | 315.8 Å² | – | –
16 | CCCCCC/C=C\CCCCCCCC(=O)O[C@@H](COC(=O)CCCCCCC/C=C\CCCCCCC)COC(=O)CCCCCCCCCCCCCCC [TG 16:0_16:1_17:1] (ion (formula + adduct): [C52H96O6+NH4] 1+) | – | 313.2 Å² | –
17 | CCCCCC/C=C\CCCCCCCC(=O)O[C@@H](COC(=O)CCCCCCC/C=C\CCCCCCCC)COC(=O)CCCCCCCCCCCCCCC [TG 16:0_16:1_18:1] (ion (formula + adduct): [C53H98O6+NH4] 1+) | 315.9 Å² | 315.8 ± 0.27 Å² | 315.95 ± 0.53 Å²
18 | CC/C=C\C/C=C\C/C=C\C/C=C\C/C=C\CCCCCC(=O)OC[C@@H](COC(=O)CCCCCCCCCCCCCCC)OC(=O)CCCCCCC/C=C\CCCCCC [TG 16:0_16:1_22:5] (ion (formula + adduct): [C57H98O6+NH4] 1+) | 321.9 Å² | – | –
19 | CCCCCCCCCCCCCCCCCC(=O)OC[C@@H](COC(=O)CCCCCCCCCCCCCCC)OC(=O)CCCCCCCCCCCCCCCC [TG 16:0_17:0_18:0] (ion (formula + adduct): [C54H104O6+NH4] 1+) | 323.3 Å² | 323.4 Å² | 323.6 Å²
20 | CCCCCCCCCCCCCCCCCCCCCC(=O)OC[C@@H](COC(=O)CCCCCCCCCCCCCCC)OC(=O)CCCCCCCCCCCCCCCC [TG 16:0_17:0_22:0] (ion (formula + adduct): [C58H112O6+NH4] 1+) | – | 334.9 ± 0.42 Å² | 335 Å²

Now from value to molecule:

Row | TIMS collisional cross section (sample type: HeLa) | TIMS collisional cross section (sample type: plasma) | TIMS collisional cross section (sample type: Liver) | Compound
21 | – | 316.6 Å² | – | CCCCC/C=C\C/C=C\CCCCCCCC(=O)OC[C@@H](COC(=O)CCCCCCCCCCCCCC)OC(=O)CCCCCCC/C=C\CCCCCCCC [TG 15:0_18:1_18:2] (ion (formula + adduct): [C54H98O6+NH4] 1+)
22 | – | 311 Å² | – | CCCCC/C=C\C/C=C\CCCCCCCC(=O)OC[C@@H](COC(=O)CCCCCCC/C=C\CCCCC)OC(=O)CCCCCCCCCCCCCCC [TG 15:1_16:0_18:2] (ion (formula + adduct): [C52H94O6+NH4] 1+)
23 | 305 Å² | – | – | CCCCC/C=C\CCCCCCCC(=O)OC[C@H](COC(=O)CCCCCCC/C=C\CCCCCC)OC(=O)CCCCCCC/C=C\CCCCCC [TG 15:1_16:1_16:1] (ion (formula + adduct): [C50H90O6+NH4] 1+)
24 | 308.4 Å² | – | – | CCCCC/C=C\C/C=C\CCCCCCCC(=O)OC[C@@H](COC(=O)CCCCCCC/C=C\CCCCC)OC(=O)CCCCCCC/C=C\CCCCCC [TG 15:1_16:1_18:2] (ion (formula + adduct): [C52H92O6+NH4] 1+)
25 | – | 314.45 ± 0.21 Å² | – | C(OC(=O)CCCCCCCCCCCCCCC)[C@]([H])(OC(CCCCCCCCCCCCCCC)=O)COC(CCCCCCCCCCCCCCC)=O [TG 16:0_16:0_16:0] (ion (formula + adduct): [C51H98O6+NH4] 1+)
26 | 317.5 Å² | 317.6 Å² | 317.6 Å² | CCCCCCCCCCCCCCCCC(=O)OC[C@@H](COC(=O)CCCCCCCCCCCCCCC)OC(=O)CCCCCCCCCCCCCCC [TG 16:0_16:0_17:0] (ion (formula + adduct): [C52H100O6+NH4] 1+)
27 | 318.75 ± 0.21 Å² | 318.4 Å² | – | CCCCCC/C=C/CCCCCCCCCC(=O)OC[C@@H](COC(=O)CCCCCCCCCCCCCCC)OC(=O)CCCCCCCCCCCCCCC [TG 16:0_16:0_18:1] (ion (formula + adduct): [C53H100O6+NH4] 1+)
28 | 324.7 Å² | – | – | CCCCCCCC/C=C\CCCCCCCCCC(=O)OC[C@@H](COC(=O)CCCCCCCCCCCCCCC)OC(=O)CCCCCCCCCCCCCCC [TG 16:0_16:0_20:1] (ion (formula + adduct): [C55H104O6+NH4] 1+)
29 | 320.5 Å² | – | – | CCCCC/C=C\C/C=C\C/C=C\C/C=C\CCCC(=O)OC[C@@H](COC(=O)CCCCCCCCCCCCCCC)OC(=O)CCCCCCCCCCCCCCC [TG 16:0_16:0_20:4] (ion (formula + adduct): [C55H98O6+NH4] 1+)
30 | 314.4 Å² | 313.6 ± 0.44 Å² | 313.45 ± 0.55 Å² | CCCCC/C=C\C/C=C\CCCCCCCC(=O)OC[C@@H](COC(=O)CCCCCCCCCCCCCCC)OC(=O)CCCCCCC/C=C\CCCCCC [TG 16:0_16:1_18:2] (ion (formula + adduct): [C53H96O6+NH4] 1+)
31 | 321.4 Å² | – | – | CC/C=C\C/C=C\C/C=C\C/C=C\C/C=C\C/C=C\CCC(=O)OC[C@@H](COC(=O)CCCCCCCCCCCCCCC)OC(=O)CCCCCCC/C=C\CCCCCC [TG 16:0_16:1_22:6] (ion (formula + adduct): [C57H96O6+NH4] 1+)
32 | – | – | 317.9 Å² | CCCCCCC/C=C\CCCCCCCC(=O)OC[C@@H](COC(=O)CCCCCCCCCCCCCCC)OC(=O)CCCCCCCCCCCCCCCC [TG 16:0_17:0_17:1] (ion (formula + adduct): [C53H100O6+NH4] 1+)
33 | 321.9 Å² | 321.6 Å² | 321.6 Å² | CCCCCCCC/C=C\CCCCCCCC(=O)OC[C@@H](COC(=O)CCCCCCCCCCCCCCC)OC(=O)CCCCCCCCCCCCCCCC [TG 16:0_17:0_18:1] (ion (formula + adduct): [C54H102O6+NH4] 1+)
34 | 328.6 Å² | – | – | CCCCCCCCCCCCCCCCCCCC(=O)OC[C@@H](COC(=O)CCCCCCCCCCCCCCC)OC(=O)CCCCCCCCCCCCCCCC [TG 16:0_17:0_20:0] (ion (formula + adduct): [C56H108O6+NH4] 1+)
35 | 332.9 Å² | – | – | CCCCCCCC/C=C\CCCCCCCCCCCC(=O)OC[C@@H](COC(=O)CCCCCCCCCCCCCCC)OC(=O)CCCCCCCCCCCCCCCC [TG 16:0_17:0_22:1] (ion (formula + adduct): [C58H110O6+NH4] 1+)
